Reference: patent US6562871B1, “Dry granulation of pharmaceutical formulation comprising mexiletine” (Boehringer Ingelheim Pharmaceuticals, Inc., priority 2000, dated 2003)
Read-outs that look alike come from different tables or passages of the source.

Tests used:
Pour and tap density = format: physicochemical; settings: average of two measurements
Protocol: Pour and tap density were tested using a Van Kel dual tapper and a 100 mL fluted graduate. The tare weight of the graduate was determined. It was then filled by pouring the powder into the graduate to approximately 70 mL. The net weight was next determined and a pour density calculated by dividing the net weight by the observed volume. Tap density was determined by allowing the graduate to tap 1000 times and reading the new volume. Tap density was calculated by dividing the net weight by the new “tap” volume. Both measurements were expressed in grams/mL. Results were reported as the average of two measurements.

[1] = Flow studies (funnel flow rate, angle of repose); format: physicochemical
Protocol: The flow studies were performed using a ring stand and funnel set-up, such that the funnel was perpendicular to the table flat surface and the tip of the funnel was 6 inches from the table flat surface. The funnel was plastic with the following dimensions: upper diameter, 150 mm, lower diameter 24 mm, and overall length 135 mm. To the upper, wider diameter of the funnel a vibrator was placed touching the outer perimeter. The vibrator was set on its dial such that the indicator was in the 3 o'clock position. Fifty grams of material was placed into the funnel while holding a piece of cardboard under it. The vibrator was started, and the cardboard was removed while simultaneously starting a timer. The time for the fifty grams to pass through a funnel was recorded. The angle of repose, the maximum angle that can be obtained between the free standing surface of a powder heap and the horizontal plane, was calculated according to: […]
Where h is the height of the powder heap and D is the diameter of the base of the powder heap. Tests were performed in duplicate.

[2] = Protocol: Particle size and distribution was determined by suspending a sample of powder in mineral oil on a hemacytometer and counting particles in the size ranges: 1-5, 5-10, 10-25, 25-50, 50-100, 100-200, >200 μm using a polarizing light microscope. At least 200 particles were counted.
Maximum and minimum particle sizes were determined with a large sampling using a low power, stereo microscope. The sample was suspended in a well slide filled with mineral oil. Measurements of the largest and smallest particles were made with a calibrated reticule.

[3] = Compressional force profiles; format: physicochemical; settings: slugs on hydraulic press, FIG. 1 and FIG. 2
Source text: Compressional force profiles were generated on a calibrated Carver press using 12 mm standard cup punches and matching die. The punches and die were dusted with magnesium stearate to facilitate the release of the slug from the die. Five hundred milligram aliquots of drug substance were weighed and individually loaded into the die for compression. Slugs were compressed at 1000, 2000, 3000, 4000, 5000, 6000, 7000 and 8000 pounds gauge force (unless otherwise noted). Gauge force readings were corrected based on the calibration for that gauge and press. The compressed slugs for each representative force were weighed on a four place balance and measured for thickness. Pressure, volume and density were calculated using slug (tablet) geometry and area.

- Tap Density (Pour and tap density; 1000 taps): 0.35 g/mL
- Bulk Density (Pour and tap density; pour density): 0.22 g/mL
- Angle of Repose [1]: 62 °
- Flow Rate ([1]; 50 g through funnel, vibrator assisted): 2.1 g/s
- Particle Size Distribution, % by number ([2]; size range 1-5 μm): 32.0%
- Particle Size Distribution, % by number ([2]; size range 5-10 μm): 23.3%
- Particle Size Distribution, % by number ([2]; size range 10-25 μm): 37.9%
- Particle Size Distribution, % by number ([2]; size range 25-50 μm): 6.6%
- Particle Size Distribution, % by number ([2]; size range 50-100 μm): 0.2%
- Particle Size Distribution, % by number ([2]; size range 100-200 μm): 0.0%
- Particle Size Distribution, % by number ([2]; size range >200 μm): 0.0%
- Size of larger particles ([2]; well slide technique, larger sample sizes, very few): 150 μm
- Compressibility (density vs pressure) ([3]; listed as drug substance): very compressible
- Compressibility (density vs pressure) ([3]; listed as mexiletine drug substance): very good compressional characteristics
SMILES: Cc1cccc(C)c1OCC(C)N (centres unmarked) [Mexiletine Drug Substance, 1-(2,6-dimethyl-phenoxy)-2-propanamine]
